Source: paper PMC4620497 (Scientific Reports, 2015)

How the values were obtained:
PRKG1 = biological target: T1, PRKG1 (Homo sapiens, UniProt Q13976); assay: KINOMEscan panel screen; assay type: binding; conditions: read-out: Percent Control(%)
T1 construct: purchased DiscoveRx KINOMEscan (Ambit Biosciences)

VEGFR2 = biological target: T2, VEGFR2 (Homo sapiens, UniProt P35968); assay: KINOMEscan kinase binding assay (Kd)
T2 construct: DNA tag (qPCR read-out); purchased Ambit Biosciences (KINOMEscan service)

YANK2 = biological target: T3, YANK2 (Homo sapiens, UniProt Q9NY57); assay: KINOMEscan panel screen; assay type: binding; conditions: read-out: Percent Control(%)
T3 construct: purchased DiscoveRx KINOMEscan (Ambit Biosciences)

HIPK2 = biological target: T4, HIPK2 (Homo sapiens, UniProt Q9H2X6); assay: KINOMEscan panel screen; assay type: binding; conditions: read-out: Percent Control(%)
T4 construct: purchased DiscoveRx KINOMEscan (Ambit Biosciences)

PLK4 = biological target: T5, PLK4 (Homo sapiens, UniProt O00444); assay: KINOMEscan panel screen; assay type: binding; conditions: read-out: Percent Control(%)
T5 construct: purchased DiscoveRx KINOMEscan (Ambit Biosciences)

CLK3 = biological target: T6, CLK3 (Homo sapiens, UniProt P49761); assay: KINOMEscan panel screen; assay type: binding; conditions: read-out: Percent Control(%)
T6 construct: purchased DiscoveRx KINOMEscan (Ambit Biosciences)

PIM3 = biological target: T7, PIM3 (Homo sapiens, UniProt Q86V86); assay: KINOMEscan panel screen; assay type: binding; conditions: read-out: Percent Control(%)
T7 construct: purchased DiscoveRx KINOMEscan (Ambit Biosciences)

ERK8 = biological target: T8, ERK8 (Homo sapiens, UniProt Q8TD08); assay: KINOMEscan panel screen; assay type: binding; conditions: read-out: Percent Control(%)
T8 construct: purchased DiscoveRx KINOMEscan (Ambit Biosciences)

PRKD3 = biological target: T9, PRKD3 (Homo sapiens, UniProt O94806); assay: KINOMEscan panel screen; assay type: binding; conditions: read-out: Percent Control(%)
T9 construct: purchased DiscoveRx KINOMEscan (Ambit Biosciences)

TAOK1 = biological target: T10, TAOK1 (Homo sapiens, UniProt Q7L7X3); assay: KINOMEscan panel screen; assay type: binding; conditions: read-out: Percent Control(%)
T10 construct: purchased DiscoveRx KINOMEscan (Ambit Biosciences)

[1] = system: HSCs (LSK cells), WBC and RBC; assay: Influence on normal HSCs and blood cells in Balb/c mice; assay type: in vivo, mouse; conditions: Balb/c mice, 1, 3, 10 mg/kg/d orally for 21 days
Procedure: To examine whether SKLB-677 has influence on normal HSCs and normal blood cells, we performed an experiment using a Balb/c mouse model, in which Balb/c mice (n = 8 in each group) were treated with indicated concentrations of SKLB-677 for 21 days, followed by detections of the proportion of HSCs (immunophenotypically characterized as Lineage^−Sca-1^+ c-Kit^+ (LSK) cells), white blood cell (WBC) and red blood cell (RBC) counts. […]
were d etected usin g BD FACSAriaⅢflow c ytometer.
Isolation of murine Bone Marrow ( BM) cells.
Balb/c mice were grouped to 4 groups (4 female mice and 4 male mice p er group) and orally treated with 0, 1, 3, and 10m g/kg/ d SKLB -677 for 21 da ys . […]
Supplementary Figure S7.The influence of SKLB -677 on mouse normal HSC and blood cells (8 mice in each group) . a ,b, The mice were o rally treat ed with indicated concentr ations o f S K LB -677 for 21d, and then W BC and RBC were counted using a blood anal yzer instrument. ns, not statistically significant. c , Th e mice were orally treated with indicated do ses of SK LB-677 for 21d, and the blood marrow cells were collected for the detection of HSC (immunophenot ypicall y ch aracterized as Lineage-Sca-1+c-Kit+, LSK) populationusing corresponding antibodies. d, The statistical data of HSC numbers. ns, not statistically significant. […]

p38-beta = biological target: T11, p38-beta (Homo sapiens, UniProt Q15759); assay: KINOMEscan panel screen; assay type: binding; conditions: read-out: Percent Control(%)
T11 construct: purchased DiscoveRx KINOMEscan (Ambit Biosciences)

[2] = biological target: T12, TYK2(JH1domain-catalytic) (Homo sapiens, UniProt P29597); assay: KINOMEscan panel screen; assay type: binding; conditions: read-out: Percent Control(%)
T12 construct: TYK2(JH1domain-catalytic); purchased DiscoveRx KINOMEscan (Ambit Biosciences)

ROCK2 = biological target: T13, ROCK2 (Homo sapiens, UniProt O75116); assay: KINOMEscan panel screen; assay type: binding; conditions: read-out: Percent Control(%)
T13 construct: purchased DiscoveRx KINOMEscan (Ambit Biosciences)

FGFR1 = biological target: T14, FGFR1 (Homo sapiens, UniProt P11362); assay: KINOMEscan kinase binding assay (Kd)
T14 construct: purchased DiscoveRx KINOMEscan (Ambit Biosciences)

[3] = biological target: T15, RSK3(Kin.Dom.1-N-terminal) (Homo sapiens, UniProt Q15349); assay: KINOMEscan panel screen; assay type: binding; conditions: read-out: Percent Control(%)
T15 construct: RSK3(Kin.Dom.1-N-terminal); purchased DiscoveRx KINOMEscan (Ambit Biosciences)

DAPK3 = biological target: T16, DAPK3 (Homo sapiens, UniProt O43293); assay: KINOMEscan panel screen; assay type: binding; conditions: read-out: Percent Control(%)
T16 construct: purchased DiscoveRx KINOMEscan (Ambit Biosciences)

RET(V804L) = biological target: T17, RET(V804L) (Homo sapiens, UniProt P07949, V804L); assay: KINOMEscan panel screen; assay type: binding; conditions: read-out: Percent Control(%)
T17 construct: purchased DiscoveRx KINOMEscan (Ambit Biosciences)

FLT3 = biological target: T18, FLT3 (Homo sapiens, UniProt P36888); assay: KINOMEscan panel screen; assay type: binding; conditions: read-out: Percent Control(%)
T18 construct: purchased DiscoveRx KINOMEscan (Ambit Biosciences)

NDR1 = biological target: T19, NDR1 (Homo sapiens, UniProt Q15208); assay: KINOMEscan panel screen; assay type: binding; conditions: read-out: Percent Control(%)
T19 construct: purchased DiscoveRx KINOMEscan (Ambit Biosciences)

SRPK2 = biological target: T20, SRPK2 (Homo sapiens, UniProt P78362); assay: KINOMEscan panel screen; assay type: binding; conditions: read-out: Percent Control(%)
T20 construct: purchased DiscoveRx KINOMEscan (Ambit Biosciences)

RAF1 = biological target: T21, RAF1 (Homo sapiens, UniProt P04049); assay: KINOMEscan panel screen; assay type: binding; conditions: read-out: Percent Control(%)
T21 construct: purchased DiscoveRx KINOMEscan (Ambit Biosciences)

[4] = biological target: T22, ABL1(F317L)-nonphosphorylated (Homo sapiens, UniProt P00519, F317L); assay: KINOMEscan panel screen; assay type: binding; conditions: read-out: Percent Control(%)
T22 construct: purchased DiscoveRx KINOMEscan (Ambit Biosciences)

NEK1 = biological target: T23, NEK1 (Homo sapiens, UniProt Q96PY6); assay: KINOMEscan panel screen; assay type: binding; conditions: read-out: Percent Control(%)
T23 construct: purchased DiscoveRx KINOMEscan (Ambit Biosciences)

HIPK1 = biological target: T24, HIPK1 (Homo sapiens, UniProt Q86Z02); assay: KINOMEscan panel screen; assay type: binding; conditions: read-out: Percent Control(%)
T24 construct: purchased DiscoveRx KINOMEscan (Ambit Biosciences)

EPHB3 = biological target: T25, EPHB3 (Homo sapiens, UniProt P54753); assay: KINOMEscan panel screen; assay type: binding; conditions: read-out: Percent Control(%)
T25 construct: purchased DiscoveRx KINOMEscan (Ambit Biosciences)

CSK = biological target: T26, CSK (Homo sapiens, UniProt P41240); assay: KINOMEscan panel screen; assay type: binding; conditions: read-out: Percent Control(%)
T26 construct: purchased DiscoveRx KINOMEscan (Ambit Biosciences)

LCK = LCK (Homo sapiens, UniProt P06239); assay: KINOMEscan panel screen; assay type: binding; conditions: read-out: Percent Control(%)

T9 sequence (O94806 whole entry): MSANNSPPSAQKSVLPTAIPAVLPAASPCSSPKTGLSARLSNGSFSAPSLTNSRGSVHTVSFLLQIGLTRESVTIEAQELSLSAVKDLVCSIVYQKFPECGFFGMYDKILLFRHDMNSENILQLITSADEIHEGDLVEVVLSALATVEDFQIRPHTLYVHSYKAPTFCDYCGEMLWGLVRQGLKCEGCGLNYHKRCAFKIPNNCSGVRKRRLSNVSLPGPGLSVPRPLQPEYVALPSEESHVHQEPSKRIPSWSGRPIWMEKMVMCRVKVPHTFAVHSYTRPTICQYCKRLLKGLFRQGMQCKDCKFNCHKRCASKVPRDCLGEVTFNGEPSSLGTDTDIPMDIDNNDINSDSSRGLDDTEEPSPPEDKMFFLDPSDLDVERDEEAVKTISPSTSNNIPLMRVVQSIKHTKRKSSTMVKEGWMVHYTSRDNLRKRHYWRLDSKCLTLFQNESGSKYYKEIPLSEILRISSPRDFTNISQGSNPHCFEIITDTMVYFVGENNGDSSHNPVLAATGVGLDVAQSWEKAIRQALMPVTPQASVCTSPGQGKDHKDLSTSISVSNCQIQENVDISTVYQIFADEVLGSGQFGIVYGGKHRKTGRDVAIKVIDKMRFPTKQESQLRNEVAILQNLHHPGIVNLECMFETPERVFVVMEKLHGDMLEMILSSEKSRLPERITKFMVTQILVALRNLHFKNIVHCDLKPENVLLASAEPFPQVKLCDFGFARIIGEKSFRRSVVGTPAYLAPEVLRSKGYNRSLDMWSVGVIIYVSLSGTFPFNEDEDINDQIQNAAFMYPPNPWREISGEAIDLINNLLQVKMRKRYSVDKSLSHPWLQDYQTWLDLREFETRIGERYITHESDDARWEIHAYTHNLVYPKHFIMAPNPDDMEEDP
T3 sequence (Q9NY57 whole entry): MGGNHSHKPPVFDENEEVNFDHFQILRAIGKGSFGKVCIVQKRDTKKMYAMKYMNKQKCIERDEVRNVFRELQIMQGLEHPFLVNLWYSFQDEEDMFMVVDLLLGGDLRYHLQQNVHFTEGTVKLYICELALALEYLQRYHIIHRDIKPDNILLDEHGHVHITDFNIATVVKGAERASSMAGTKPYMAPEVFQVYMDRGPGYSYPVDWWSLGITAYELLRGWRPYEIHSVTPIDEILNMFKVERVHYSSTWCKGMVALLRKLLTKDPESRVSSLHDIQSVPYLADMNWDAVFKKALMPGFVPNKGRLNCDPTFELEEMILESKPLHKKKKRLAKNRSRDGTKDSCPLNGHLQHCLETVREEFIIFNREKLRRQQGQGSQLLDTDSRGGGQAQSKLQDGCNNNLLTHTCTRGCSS
T11 sequence (Q15759 whole entry): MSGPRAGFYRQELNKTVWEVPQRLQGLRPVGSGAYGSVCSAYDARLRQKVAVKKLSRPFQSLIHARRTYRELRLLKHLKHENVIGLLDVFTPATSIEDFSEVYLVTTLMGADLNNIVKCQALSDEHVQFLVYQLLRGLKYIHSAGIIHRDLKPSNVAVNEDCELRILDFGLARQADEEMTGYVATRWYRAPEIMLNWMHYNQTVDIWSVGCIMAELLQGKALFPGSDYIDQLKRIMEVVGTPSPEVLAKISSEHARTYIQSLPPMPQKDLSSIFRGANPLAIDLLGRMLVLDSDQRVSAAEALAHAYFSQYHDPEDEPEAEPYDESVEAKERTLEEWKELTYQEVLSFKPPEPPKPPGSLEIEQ
T19 sequence (Q15208 whole entry): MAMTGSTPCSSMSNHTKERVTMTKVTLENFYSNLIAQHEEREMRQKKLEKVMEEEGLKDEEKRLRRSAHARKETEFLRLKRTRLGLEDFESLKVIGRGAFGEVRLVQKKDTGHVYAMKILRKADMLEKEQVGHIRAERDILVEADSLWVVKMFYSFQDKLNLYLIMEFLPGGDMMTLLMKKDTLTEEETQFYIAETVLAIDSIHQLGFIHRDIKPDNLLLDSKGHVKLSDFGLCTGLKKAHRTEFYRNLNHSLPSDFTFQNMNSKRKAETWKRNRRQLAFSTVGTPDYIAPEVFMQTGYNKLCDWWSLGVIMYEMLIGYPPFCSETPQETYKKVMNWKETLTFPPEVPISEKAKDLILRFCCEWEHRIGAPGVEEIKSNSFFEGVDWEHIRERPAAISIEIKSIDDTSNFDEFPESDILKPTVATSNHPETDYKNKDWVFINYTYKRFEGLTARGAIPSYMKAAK
T22 sequence (P00519 229-512 F317L limits assumed): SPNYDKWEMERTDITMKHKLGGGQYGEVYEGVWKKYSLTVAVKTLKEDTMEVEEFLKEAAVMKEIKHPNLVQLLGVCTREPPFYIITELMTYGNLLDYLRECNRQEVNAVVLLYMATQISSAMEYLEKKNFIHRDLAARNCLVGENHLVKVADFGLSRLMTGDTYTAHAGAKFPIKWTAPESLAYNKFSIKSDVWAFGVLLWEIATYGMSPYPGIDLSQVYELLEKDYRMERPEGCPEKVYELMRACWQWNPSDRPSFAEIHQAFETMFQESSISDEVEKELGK
T6 sequence (P49761 whole entry): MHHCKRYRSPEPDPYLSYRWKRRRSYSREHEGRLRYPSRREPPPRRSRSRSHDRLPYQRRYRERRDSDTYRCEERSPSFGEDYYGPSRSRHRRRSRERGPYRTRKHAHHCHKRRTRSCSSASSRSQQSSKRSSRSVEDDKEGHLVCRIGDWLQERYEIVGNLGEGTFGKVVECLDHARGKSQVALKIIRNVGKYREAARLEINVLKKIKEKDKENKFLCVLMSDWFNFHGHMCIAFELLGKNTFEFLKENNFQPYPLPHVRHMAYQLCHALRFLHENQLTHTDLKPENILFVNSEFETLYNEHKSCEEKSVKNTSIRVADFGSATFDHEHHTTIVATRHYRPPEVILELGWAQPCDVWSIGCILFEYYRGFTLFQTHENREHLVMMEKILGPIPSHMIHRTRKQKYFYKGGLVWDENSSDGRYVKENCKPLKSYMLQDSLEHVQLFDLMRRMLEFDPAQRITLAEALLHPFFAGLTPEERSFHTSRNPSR
T18 sequence (P36888 27-993): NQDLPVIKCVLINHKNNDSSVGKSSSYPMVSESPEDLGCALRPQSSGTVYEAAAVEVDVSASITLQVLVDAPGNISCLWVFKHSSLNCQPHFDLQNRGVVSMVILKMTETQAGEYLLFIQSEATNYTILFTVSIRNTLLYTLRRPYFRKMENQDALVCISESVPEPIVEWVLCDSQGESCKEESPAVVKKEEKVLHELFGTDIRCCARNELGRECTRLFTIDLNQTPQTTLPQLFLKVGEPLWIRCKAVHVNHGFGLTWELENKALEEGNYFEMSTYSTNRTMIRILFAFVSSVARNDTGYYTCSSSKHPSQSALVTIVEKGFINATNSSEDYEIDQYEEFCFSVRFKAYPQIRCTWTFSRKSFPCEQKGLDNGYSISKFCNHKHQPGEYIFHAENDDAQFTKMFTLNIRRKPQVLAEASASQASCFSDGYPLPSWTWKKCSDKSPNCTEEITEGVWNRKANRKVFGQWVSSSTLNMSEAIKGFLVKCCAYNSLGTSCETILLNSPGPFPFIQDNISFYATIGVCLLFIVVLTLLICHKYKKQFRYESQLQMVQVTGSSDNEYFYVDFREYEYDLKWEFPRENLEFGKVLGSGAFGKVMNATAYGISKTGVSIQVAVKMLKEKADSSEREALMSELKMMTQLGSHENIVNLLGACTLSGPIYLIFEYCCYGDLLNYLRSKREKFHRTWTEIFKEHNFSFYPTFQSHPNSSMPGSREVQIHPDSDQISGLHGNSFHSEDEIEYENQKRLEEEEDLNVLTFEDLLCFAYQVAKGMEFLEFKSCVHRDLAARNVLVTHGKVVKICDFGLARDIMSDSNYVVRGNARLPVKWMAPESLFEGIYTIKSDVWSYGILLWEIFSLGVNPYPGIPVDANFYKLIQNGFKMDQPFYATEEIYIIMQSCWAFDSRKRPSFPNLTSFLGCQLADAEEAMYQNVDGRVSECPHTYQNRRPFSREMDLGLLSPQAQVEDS
T1 sequence (Q13976 whole entry): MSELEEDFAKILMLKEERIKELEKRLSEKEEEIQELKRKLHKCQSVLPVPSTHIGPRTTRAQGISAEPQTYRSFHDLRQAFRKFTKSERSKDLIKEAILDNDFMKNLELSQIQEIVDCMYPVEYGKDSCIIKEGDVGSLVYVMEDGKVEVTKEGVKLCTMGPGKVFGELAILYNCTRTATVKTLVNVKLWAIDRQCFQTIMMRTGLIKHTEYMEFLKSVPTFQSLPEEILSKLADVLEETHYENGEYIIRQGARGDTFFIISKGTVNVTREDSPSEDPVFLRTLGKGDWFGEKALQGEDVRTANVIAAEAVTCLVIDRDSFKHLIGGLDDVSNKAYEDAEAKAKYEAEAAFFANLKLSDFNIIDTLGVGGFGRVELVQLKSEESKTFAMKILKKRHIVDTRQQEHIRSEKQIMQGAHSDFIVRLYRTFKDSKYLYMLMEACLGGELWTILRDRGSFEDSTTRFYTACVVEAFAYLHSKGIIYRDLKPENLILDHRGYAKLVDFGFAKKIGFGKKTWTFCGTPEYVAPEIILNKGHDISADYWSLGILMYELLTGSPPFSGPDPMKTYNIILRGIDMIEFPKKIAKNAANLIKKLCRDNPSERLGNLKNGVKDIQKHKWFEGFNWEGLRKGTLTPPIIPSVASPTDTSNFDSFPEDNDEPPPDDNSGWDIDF
T15 sequence (Q15349 59-318 limits assumed): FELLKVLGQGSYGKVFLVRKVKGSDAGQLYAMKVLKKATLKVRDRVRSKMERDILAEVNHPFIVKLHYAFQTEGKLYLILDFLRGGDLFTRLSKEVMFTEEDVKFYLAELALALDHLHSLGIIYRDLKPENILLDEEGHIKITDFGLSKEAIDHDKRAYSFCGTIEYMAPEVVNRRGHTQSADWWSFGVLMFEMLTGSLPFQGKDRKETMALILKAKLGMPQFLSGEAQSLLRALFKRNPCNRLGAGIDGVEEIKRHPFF

CC(C)(C)c1cc(NC(=O)Nc2ccc(Oc3ncnc4[nH]ncc34)c(F)c2)no1 [SKLB-677, 1-(4-(1H-pyrazolo[3,4-d]pyrimidin-4-yloxy)-3-fluorophenyl)-3-(5-tert-butylisoxazol-3-yl)urea]
remaining binding at 10 µM (PRKG1): 86%
Kd (VEGFR2): 11 nM
remaining binding at 10 µM (YANK2): 50%
remaining binding at 10 µM (HIPK2): 4.4%
remaining binding at 10 µM (PLK4): 68%
remaining binding at 10 µM (CLK3): 52%
remaining binding at 10 µM (PIM3): 40%
remaining binding at 10 µM (ERK8): 0.8%
remaining binding at 10 µM (PRKD3): 100%
remaining binding at 10 µM (TAOK1): 3.2%
HSCs (LSK cells) [1]: not inhibited
white and red blood counts [1]: normal
remaining binding at 10 µM (p38-beta): 0.2%
remaining binding at 10 µM [2]: 44%
remaining binding at 10 µM (ROCK2): 66%
Kd (FGFR1): 600 nM
remaining binding at 10 µM [3]: 41%
remaining binding at 10 µM (DAPK3): 71%
remaining binding at 10 µM (RET(V804L)): 0%
remaining binding at 10 µM (FLT3): 2%
remaining binding at 10 µM (NDR1): 58%
remaining binding at 10 µM (SRPK2): 100%
remaining binding at 10 µM (RAF1): 3.5%
remaining binding at 10 µM [4]: 10%
remaining binding at 10 µM (NEK1): 64%
remaining binding at 10 µM (HIPK1): 68%
remaining binding at 10 µM (EPHB3): 0.8%
remaining binding at 10 µM (CSK): 76%
remaining binding at 10 µM (LCK): 0.3%
